{"source": "patent US8333959B2", "about": "“Ex-vivo application of solid microparticulate therapeutic agents” (Baxter International Inc., priority 2004, dated 2012)", "origin": "cited, not measured here", "system": "HIV-infected macrophages", "data": [{"smiles": "CC(C)(C)NC(=O)[C@@H]1C[C@@H]2CCCC[C@@H]2CN1C[C@@H](O)[C@H](Cc1ccccc1)NC(=O)[C@H](CC(N)=O)NC(=O)c1ccc2ccccc2n1", "note": "[saquinavir]", "values": [{"measurement": "antiviral activity in HIV-infected macrophages", "setting": "HIV-infected macrophages, in vitro, solution vs nanoparticulate formulation", "value": "little antiviral activity"}, {"measurement": "antiviral activity in chronically HIV-infected macrophages", "setting": "concentration of 100 nM, chronically HIV-infected macrophages", "value": "completely inactive"}]}]}
